For two compounds, IC50 results are on record in publication PMC11477218 (International Journal of Molecular Sciences, 2024).

In general, IC50 refers to the concentration that gives 50% inhibition.

For this assay, the target named is T1, 20S proteasome β5 subunit (Homo sapiens, UniProt P28074).
T1 construct: gene PSMB5; human erythrocyte 20S proteasome (constitutive); with other subunits of the 20S proteasome
T1 sequence (P28074 60-263): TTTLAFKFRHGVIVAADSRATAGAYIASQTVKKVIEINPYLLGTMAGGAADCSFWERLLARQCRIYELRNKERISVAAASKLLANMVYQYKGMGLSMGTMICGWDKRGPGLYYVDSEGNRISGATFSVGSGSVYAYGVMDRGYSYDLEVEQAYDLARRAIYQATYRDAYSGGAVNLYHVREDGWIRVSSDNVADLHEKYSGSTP
The experiment in a line: fluorogenic Suc-LLVY-AMC chymotrypsin-like activity assay. Format: biochemical.

Structures are written as SMILES. Like-named read-outs stand apart in the source and are kept apart here.

On to `COc1cc2ccn(C/C=C/C(=O)NCCC(C)C)c(=O)c2cc1OC` [AM12], for which the half-inhibitory concentration (IC50) (read-out: IC50) came out at 12.2 ± 1.8 µM.
Compound `O=c1c(O)c(-c2ccc(O)c(O)c2)oc2cc(O)cc(O)c12` [quercetin] had an IC50 of 2.96 ± 0.77 µM.
